# In PubChem BioAssay AID2683 (Broad Institute, 2010):
# Where “and” joins values, the source holds several entries; their conditions need not be identical. Equal values may be shown once. Calls of active or inactive are those of the source.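 Rule for the calls: active = rising-signal curve whose EC50 is at most tenfold above the top concentration tested; inconclusive = flat fit with activity between 30% and 70%, or invalid fit; inactive = the rest.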
# Tested on: S. cerevisiae SKY197-pL101 polyadenylation reporter, beta-gal luminescence, 9 h
# Experiment: elevated beta-gal reporter luminescence in yeast – S. cerevisiae SKY197-pL101, polyadenylation inhibitor project, dose response (AID 2683)
row,Compound,EC50
1,Cc1ccc2nc(/C(C#N)=C/c3ccc([N+](=O)[O-])o3)[nH]c2c1,6.5 µM and 7.25 µM
2,N#C/C(=C\c1cccc([N+](=O)[O-])c1)c1nc2ccccc2[nH]1,> 12 µM (inactive)
3,Cc1ccc2nc(/C(C#N)=C/c3ccc(C)o3)[nH]c2c1,> 12 µM (inactive)
4,Cc1cccc2[nH]c(/C(C#N)=C/c3ccc([N+](=O)[O-])o3)nc12,5.83 µM
5,N#C/C(=C\c1ccco1)c1nc2ccccc2[nH]1,> 12 µM (inactive)

# Further lines, results first:
row,EC50,Compound
1,10.8 µM,N#C/C(=C\c1ccc([N+](=O)[O-])o1)c1nc2ccccc2[nH]1
2,8.25 µM,N#C/C(=C/c1ccc([N+](=O)[O-])o1)c1nc2ccccc2[nH]1
